Consider 31 compounds from ChEMBL document CHEMBL4145536, “Design, synthesis and biological evaluation of novel bouchardatine analogs as potential inhibitors of adipogenesis/lipogenesis in 3T3-L1 adipocytes” (Eur J Med Chem, 2018).

Activity calls are given as the source filed them. The rule behind the calls is not given here. Some results are limits rather than exact numbers.

The subject of test [1] is 3T3-L1. In words: Lipid lowering activity in mouse 3T3L1 cells assessed as decrease in triglyceride level at 10 uM for 6 days by oil red o-staining based assay relative to control. In kind it is functional. The arrangement: scale not given: the % may be the effect or the level left.
Test [2] deals with HepG2. In words: Lipid lowering activity in human HepG2 cells assessed as decrease in triglyceride level at 10 uM for 6 days in presence of oleic acid by oil red o-staining based assay relative to control. It is filed as functional. The arrangement: scale not given: the % may be the effect or the level left.
Test [3] relates to 3T3-L1. Put plainly: Cytotoxicity against mouse 3T3L1 cells assessed as decrease in cell viability after 24 hrs by MTT assay. Particulars: 3T3-L1, 24 h. It is filed as cell-based.
In test [4] the test system is HepG2. Put plainly: Cytotoxicity against human HepG2 cells assessed as decrease in cell viability after 24 hrs by MTT assay. It is filed as cell-based. Particulars: HepG2, 24 h.
The test system of test [5] is 3T3-L1. In words: Lipid lowering activity in mouse 3T3L1 cells assessed as decrease in triglyceride level at 10 uM for 6 days by oil red o-staining based microscopic assay. It is filed as functional, cell-based.

One may read the IC50 as the concentration that inhibits the measured activity by half. In the case of `Brc1c(-c2nc(NCCCN3CCCC3)c3ccccc3n2)[nH]c2ccccc12`, the Activity in test [1] was 81.6%; in test [2], 53.1%. The IC50 turned out to be 9.6 µM in test [3] and 3.1 µM in test [4].

As to `CC(C)CCNc1nc(-c2[nH]c3ccccc3c2F)nc2ccccc12`, the values for the Activity in test [1] and in test [2] were 37.3% and 38.7%, respectively. In addition, the figures for the IC50 in test [3] and in test [4] were over 50 µM and 28.7 µM, respectively. Besides, in test [5], the outcome was Active.

Regarding `O=c1[nH]c(-c2cc3ccccc3[nH]2)nc2ccccc12`, the Activity was found to be 43.8% in test [1] and 14.9% in test [2]. The IC50 in test [3] is 43.8 µM; in test [4], 14.9 µM.

With `Clc1c(-c2nc(NCCN3CCCCC3)c3ccccc3n2)[nH]c2ccccc12`, the values for the Activity in test [1] and in test [2] were 70.3% and 52%, respectively. Also, the IC50 in test [3] is 41.6 µM; in test [4], 18 µM. Also, the result in test [5] was Active.

As for `CCN(CC)CCNc1nc(-c2[nH]c3ccccc3c2Br)nc2ccccc12`, the Activity in test [1] turned out to be 86.5%; in test [2], 50%. Besides, the IC50 in test [3] came out at 15.4 µM; in test [4] it was 6.1 µM.

Turning to `Clc1c(-c2nc(NCCCN3CCCC3)c3ccccc3n2)[nH]c2ccccc12`, the Activity in test [1] amounted to 53.8%; in test [2], 51.4%. Also, the IC50 in test [3] is 20.1 µM; in test [4], 4.7 µM.

With `Brc1c(-c2nc(NCCN3CCCCC3)c3ccccc3n2)[nH]c2ccccc12`, the Activity in test [1] came to 83.8%; in test [2], 62.1%. Besides, the IC50 stood at 13.2 µM in test [3] and 5.1 µM in test [4].

On to `O=Cc1c(-c2nc(NCCN3CCCC3)c3ccccc3n2)[nH]c2ccccc12`, for which the Activity in test [1] turned out to be 94.9%.

As to `Clc1nc(-c2[nH]c3ccccc3c2Br)nc2ccccc12`, the Activity in test [1] was determined as 58.9%; in test [2], 0.9%. Besides, the IC50 in test [3] and in test [4] was over 50 µM in each case. Besides, the outcome in test [5] was Active.

On to `CN(C)CCNc1nc(-c2[nH]c3ccccc3c2F)nc2ccccc12`, for which the figures for the Activity in test [1] and in test [2] were 57.3% and 24.2%, respectively. The values for the concentration for half-maximal inhibition (IC50) in test [3] and in test [4] were 21.7 µM and 4.2 µM, respectively.

Consider `Brc1c(-c2nc(NCCN3CCCC3)c3ccccc3n2)[nH]c2ccccc12`, for which the Activity in test [1] came out at 84.2%; in test [2] it was 54.3%. Further, the figures for the IC50 in test [3] and in test [4] were 12.6 µM and 4.3 µM, respectively.

As for `CN(C)CCNc1nc(-c2cc3ccccc3[nH]2)nc2ccccc12`, the Activity in test [1] was 42.3%; in test [2] it was 0.6%. The IC50 was determined as 12.9 µM in test [3] and 25.3 µM in test [4].

Take `Clc1c(-c2nc(NCCN3CCOCC3)c3ccccc3n2)[nH]c2ccccc12`: the Activity is 54.6% in test [1] and 46.9% in test [2]. In addition, the IC50 worked out at 37.9 µM in test [3] and 15.6 µM in test [4].

Turning to `CN1CCN(CCCNc2nc(-c3[nH]c4ccccc4c3F)nc3ccccc23)CC1`, the Activity in test [1] was determined as 42.5%; in test [2], 22.5%. For the same compound, the IC50 came to 19.8 µM in test [3] and 5.2 µM in test [4].

As for `CN(C)CCCNc1nc(-c2[nH]c3ccccc3c2C=O)nc2ccccc12`, the Activity in test [1] came to 82.1%; in test [2] it was 52.1%. The IC50 in test [3] amounted to 34.4 µM; in test [4], 27.4 µM. The outcome in test [5] was Active.

`c1ccc2[nH]c(-c3nc(NCCCN4CCCC4)c4ccccc4n3)cc2c1`: the Activity amounted to 42.7% in test [1] and 14.2% in test [2]. Besides, the IC50 in test [3] and in test [4] was over 50 µM each time.

Take `O=c1[nH]c(-c2[nH]c3ccccc3c2Br)nc2ccccc12`: the Activity came to 34.6% in test [1] and 40.4% in test [2]. The half-maximal inhibitory concentration (IC50) in test [3] and in test [4] was over 50 µM each time. Further, the outcome in test [5] was Active.

With `CN(C)CCNc1nc(-c2[nH]c3ccccc3c2Cl)nc2ccccc12`, the results for the Activity in test [1] and in test [2] were 89.1% and 33%, respectively. The half-inhibitory concentration (IC50) in test [3] was 14.8 µM; in test [4], 2.7 µM.

As for `OCCNc1nc(-c2[nH]c3ccccc3c2Cl)nc2ccccc12`, the Activity was determined as 38.3% in test [1] and 53.1% in test [2]. For the same compound, the half-inhibitory concentration (IC50) in test [3] was over 50 µM; in test [4], 20.9 µM.

For `Clc1nc(-c2[nH]c3ccccc3c2Cl)nc2ccccc12`, the values for the Activity in test [1] and in test [2] were 45.6% and 37.7%, respectively. Besides, the IC50 in test [3] and in test [4] was over 50 µM throughout. In addition, the outcome in test [5] was Active.

For `Clc1c(-c2nc(NCCN3CCCC3)c3ccccc3n2)[nH]c2ccccc12`, the values for the Activity in test [1] and in test [2] were 60.5% and 42.5%, respectively. Further, the figures for the IC50 in test [3] and in test [4] were 24.5 µM and 2.5 µM, respectively.

Regarding `c1ccc2[nH]c(-c3nc(NCCN4CCCC4)c4ccccc4n3)cc2c1`, the Activity in test [1] was determined as 66.8%; in test [2], 13.1%. Further, the IC50 in test [3] came out at 20.4 µM; in test [4] it was 40.4 µM.

With `Fc1c(-c2nc(NCCN3CCCC3)c3ccccc3n2)[nH]c2ccccc12`, the figures for the Activity in test [1] and in test [2] were 64.2% and 23.6%, respectively. The half-inhibitory concentration (IC50) in test [3] was 24.5 µM; in test [4], 7.3 µM.

Turning to `CN(C)CCCNc1nc(-c2[nH]c3ccccc3c2F)nc2ccccc12`, the Activity turned out to be 45% in test [1] and 32.7% in test [2]. Also, the IC50 was determined as 22.2 µM in test [3] and 6 µM in test [4].

For `OCCCNc1nc(-c2[nH]c3ccccc3c2F)nc2ccccc12`, the Activity in test [1] worked out at 44.4%; in test [2] it was 26.3%. For the same compound, the IC50 is over 50 µM in test [3] and 30 µM in test [4].

Turning to `Clc1c(-c2nc(NCCCN3CCOCC3)c3ccccc3n2)[nH]c2ccccc12`, the results for the Activity in test [1] and in test [2] were 56.6% and 36.6%, respectively. In addition, the IC50 in test [3] is 30.1 µM; in test [4], 10.3 µM.

Turning to `CN(C)CCCNc1nc(-c2[nH]c3ccccc3c2Cl)nc2ccccc12`, the values for the Activity in test [1] and in test [2] were 49.5% and 35.8%, respectively. In addition, the IC50 was 18.1 µM in test [3] and 4.1 µM in test [4].

`CCN(CC)CCNc1nc(-c2[nH]c3ccccc3c2Cl)nc2ccccc12`: the Activity in test [1] was 87.5%; in test [2], 15.6%. Further, the figures for the IC50 in test [3] and in test [4] were 19.2 µM and 4.6 µM, respectively.

Take `CN1CCN(CCCNc2nc(-c3[nH]c4ccccc4c3Cl)nc3ccccc23)CC1`: the Activity in test [1] amounted to 83.4%; in test [2] it was 41.2%. In addition, the IC50 in test [3] worked out at 14.4 µM; in test [4] it was 2.7 µM.

Consider `Brc1c(-c2nc(NCCCN3CCCCC3)c3ccccc3n2)[nH]c2ccccc12`, for which the figures for the Activity in test [1] and in test [2] were 84.9% and 62.3%, respectively. In addition, the IC50 in test [3] stood at 14.9 µM; in test [4] it was 6 µM.

With `CN(C)CCCNc1nc(-c2cc3ccccc3[nH]2)nc2ccccc12`, the Activity in test [1] came out at 48.2%; in test [2], 5.8%. Also, the 50% inhibitory concentration (IC50) came to 30.3 µM in test [3] and 44.2 µM in test [4].
